Like-named read-outs stand apart in the source and are kept apart here.
Experiments:
ovalbumin = assay: Subcutaneous immunization with ovalbumin antigen: specific serum immunoglobulins (ELISA); type: in vivo, BALB/c mice; details: for adjuvant effect on titer of antibodies specifically raised against ovalbumin: IgG1 and IgG2a subclasses, after one or two injections, FIGS. 25-27; for Immunoglobulins specifically raised against ovalbumin of IgG1 subclass / Immunoglobulins specifically raised against ovalbumin of IgG2a subclass / Immunoglobulins specifically raised against ovalbumin of IgM subclass: s.c. injections days 0 and 14, ovalbumin 50 μg, adjuvant 50 μg per injection, ± SD
Protocol: To this end, 50 BALB/c mice (females, aged 8 weeks at the beginning of treatment) were divided into 5 groups as follows:
Antigen: An ovalbumin stock solution is prepared at a concentration of 0.5 mg/ml in 0.9% NaCl.
The negative control consists of a 0.9% NaCl solution without antigen.
Antigen-Adjuvant mixture: Adjuvants are allowed to stand for 20 minutes at 37° C. before vortex treatment for 3 minutes. Then the antigen and (0.9%) NaCl are added as specified in the above Table, and the antigen/adjuvant mixture is vortexed briefly before placing it on a rotary stirrer for 15 minutes at room temperature, then the whole mixture is vortexed for 3 minutes.
Immunization regimen: Injections are scheduelled on days 0 and 14. The mixtures stated in the preceeding table are administered by subcutaeous route (75 μl on the side, 150 μl in total per animal). Blood sampling is scheduelled on days 14 and 28 (orbital puncture).
Assay for anti-ovalbumin immunoglobulins: The following serum Immunolglobulins which are specifically directed against ovalbumin are assayed in duplicate by ELISA: IgG1, IgG2a, and IgM. Briefly stated, microtiter plates (NUNC Immunoplate, Roskilde, DK) are incubated (overnight coating) at 40C together with 100 μl ovalbumin (0.5 μg) in bicarbonate buffer pH 9.6). After washing with 0.5% Tween-20 (Merck Hohenbrunn, D), sera are diluted 50-, 200- and 800-fold (diluting solution: phosphate buffered saline (PBS)+1% bovine serum albumin (BSA, Sigma, St. Louis, Mo., USA)+0.02% Tween-20)). 100 μl of each dilute serum sample are added to the wells. Incubation lasts 45 minutes at 37° C.
After a second washing step, IgG1, IgG2a and IgM specifically directed to ovalbumin are incubated for 30 minutes at 37° C. together with 100 μl of anti-IgG1 antibodies (anti-mouse rat antibody)-peroxydase conjugate (Serotec, Oxford, UK), IgG2a-peroxydase conjugate (Pharmingen, San Diego, Calif., USA) and IgM-biotin conjugate (Pharmingen, San Diego, Calif., USA), diluted beforehand in PBS/BSA/Tween buffer (250-, 1000-, 500-fold dilutions, respectively). For IgM, after an extra washing step, a 3rd incubation step is required (30 min. at 37° C.) with a 1:100 dilute solution of streptavidin-peroxydase conjugate (Dako, Glostrup, DK).
After the washing step, 100 μl of a phenylene 1,2-diamine solution (OPD, Merck, Darmstadt, GFR) are added to detect peroxydase-coupled anti-IgG1 and anti-IgG2 secondary antibodies (whereas for IgM, the reagent being used is 3′, 3′, 5′,5′-tetramethylbenzidine (TMB, Sigma, St. Louis, Mo., USA). After a 20 minute incubation period at room temperature, the reaction is stopped by adding 100 μl of 2N H2SO4. Absorbance values are read at 490 nm with a Bio-Rad 3550 model plate reader
Results of each reading at 490 nm are given in arbitrary units (A.U.) per ml. This is achieved by comparing each sample with a standard prepared from different dilutions of a sample pool collected from group B at day 28 (animals injected with ovalbumin alone). As clearly understood by this term, the sample pool diluted 50-fold is at a concentration of 1000 A.U./ml. Individual results are then corrected for the corresponding dilution factor (50, 200, or 800 times). Only the mean values of each group and the standard deviation (SD) are herein reported.

[1] = Weight change in rats of the peritoneal carcinoma study; type: in vivo, BDIX rats
H1N1 antigen = assay: Subcutaneous immunization with H1N1 antigen: specific serum immunoglobulins (ELISA); type: in vivo, BALB/c mice; details: for Immunoglobulins specifically raised against H1N1 of IgG1 subclass / Immunoglobulins specifically raised against H1N1 of IgG2a subclass / Immunoglobulins specifically raised against H1N1 of IgM subclass: s.c. injections days 0 and 14, H1N1 2.5 μg, adjuvant 50 μg per injection, ± SD; for adjuvant effect on titer of antibodies specifically raised against H1N1: after one or two injections, FIGS. 22-24
UreB 1-569 = assay: Nasal immunization with urease B subunit of Heliobacter pylori: serum anti-UreB immunoglobulins (ELISA); type: in vivo, BALB/c mice; details: 4 times weekly, 25 μg OM-294-DP alone
DC-6 cells = assay: α TNF production by predendritic cells at DC-6 stage (ELISA); details: 10 μg/ml; 4, 6 and 24 hr; FIG. 10
[2] = test system: Pb CS 245-252 T-cell epitope; assay: Murine immunization with Pb CS His6-242-310 peptide: CTL response (γ IFN ELISPOT); details: 0.05 mg adjuvant + 0.02 mg antigen s.c.; FIGS. 17-20
monocytes and DC-6 cells = assay: IL-12 p70 production by monocytes and DC-6 cells (ELISA); details: 10 μg/ml, in presence of γ IFN; FIGS. 11, 12
gp63 antigen = type: in vivo, CBA mice; details: 2 s.c. injections gp63 2 μg with 2×50 μg OM-294-MP or 200 μg BCG

Structure (SMILES)	adjuvant effect on titer of antibodies specifically raised against ovalbumin (ovalbumin)	Immunoglobulins specifically raised against H1N1 of IgG1 subclass (H1N1 antigen; Day 14) [Arbitrary units/ml]	Immunoglobulins specifically raised against H1N1 of IgG2a subclass (H1N1 antigen; Day 14) [Arbitrary units/ml]	Immunoglobulins specifically raised against H1N1 of IgM subclass (H1N1 antigen; Day 14) [Arbitrary units/ml]	Immunoglobulins specifically raised against H1N1 of IgG1 subclass (H1N1 antigen; Day 28) [Arbitrary units/ml]	Immunoglobulins specifically raised against H1N1 of IgG2a subclass (H1N1 antigen; Day 28) [Arbitrary units/ml]	Immunoglobulins specifically raised against H1N1 of IgM subclass (H1N1 antigen; Day 28) [Arbitrary units/ml]	adjuvant effect on titer of antibodies specifically raised against H1N1 (H1N1 antigen)	α TNF production by DC-6 cells (DC-6 cells)	CTL activity of lymphocytes from spleen and inguinal lymph nodes (γ IFN spots) [2]	also measured
CCCCCCCCCCCC(=O)O[C@H](CCCCCCCCCCC)CC(=O)NC(CCOP(=O)(O)O)C(=O)NCCCC(COP(=O)(O)O)NC(=O)C[C@H](O)CCCCCCCCCCC (stereo partly drawn) [OM-294-DP, 3-[(R)-3-dodecanoyloxytetradecanoylamino]-4-oxo-5-aza-9-[(R)-3-hydroxytetradecanoylamino]decan-1,10-diol 1, 10-bis(dihydrogenphosphate)]	significantly increase	59 ± 21	452 ± 584	20756 ± 7160	38 ± 25	782 ± 857	20944 ± 9065	significantly increase the titer of antibodies specifically raised against H1N1	only a minor stimulating effect	clearly superior to the one induced by IFA	Weight of rats (mean ± standard deviation) ([1]; Day 0): 277 ± 19; Weight of rats (mean ± standard deviation) ([1]; Day 13): 310 ± 21; Weight of rats (mean ± standard deviation) ([1]; Day 20): 304 ± 23; Weight of rats (mean ± standard deviation) ([1]; Day 29): 317 ± 24; Weight of rats (mean ± standard deviation) ([1]; Day 41): 327 ± 26; effect on weight change in comparison to NaCl alone ([1]; rat, in vivo): no significant effect on weight change; anti-UreB antibodies in serum (UreB 1-569): No anti-UreB antibodies are detected
CCCCCCCCCCCC(=O)O[C@H](CCCCCCCCCCC)CC(=O)NC(CCOP(=O)(O)O)C(=O)NCCCC(CO)NC(=O)C[C@H](O)CCCCCCCCCCC (stereo partly drawn) [OM-294-MP, 3-[(R)-3-dodecanoyloxytetradecanoylamino]-4-oxo-5-aza-9-[(R)-3-hydroxytetradecanoylamino]-decane-1,10-diol 1-dihydrogenphosphate]	significantly increase	69 ± 34	1619 ± 743	19065 ± 4069	59 ± 31	1767 ± 1034	18018 ± 1016	significantly increase the titer of antibodies specifically raised against H1N1	in a way similar to LPS	clearly superior to the one induced by IFA	Immunoglobulins specifically raised against ovalbumin of IgG1 subclass (ovalbumin; Day 14): 19 ± 8 Arbitrary units/ml; Immunoglobulins specifically raised against ovalbumin of IgG2a subclass (ovalbumin; Day 14): 11253 ± 12169 Arbitrary units/ml; Immunoglobulins specifically raised against ovalbumin of IgM subclass (ovalbumin; Day 14): 19742 ± 5667 Arbitrary units/ml; Immunoglobulins specifically raised against ovalbumin of IgG1 subclass (ovalbumin; Day 28): 40 ± 69 Arbitrary units/ml; Immunoglobulins specifically raised against ovalbumin of IgG2a subclass (ovalbumin; Day 28): 4192 ± 2104 Arbitrary units/ml; Immunoglobulins specifically raised against ovalbumin of IgM subclass (ovalbumin; Day 28): 9827 ± 2021 Arbitrary units/ml; IL-12 p70 production in monocytes and DC-6 cells (monocytes and DC-6 cells): induced in presence of γ IFN; murine T lymphocyte proliferation, 3H-TdR take-up (gp63 antigen; gp63 in vitro 0 μg/ml): 2.8 ± 0.7 cpm × 10^−3/ml; murine T lymphocyte proliferation, 3H-TdR take-up (gp63 antigen; gp63 in vitro 0.16 μg/ml): 65 ± 11 cpm × 10^−3/ml; murine T lymphocyte proliferation, 3H-TdR take-up (gp63 antigen; gp63 in vitro 0.31 μg/ml): 92 ± 11 cpm × 10^−3/ml; murine T lymphocyte proliferation, 3H-TdR take-up (gp63 antigen; gp63 in vitro 0.62 μg/ml): 93 ± 13 cpm × 10^−3/ml; murine T lymphocyte proliferation, 3H-TdR take-up (gp63 antigen; gp63 in vitro 1.25 μg/ml): 39 ± 7 cpm × 10^−3/ml

From patent US7157092B1, “Acyl pseudodipeptides, preparation method and pharmaceutical compositions containing same” (Om Pharma, priority 1998, dated 2007)
